Experimental findings from patent US20080089845A1, “METHODS FOR DETERMINING EFFECTIVE DOSES OF FATTY ACID AMIDE HYDROLASE INHIBITORS IN VIVO” (N.V. Organon, priority 2006, published 2008) are described below.

Assay [1] concerns the target T1, FAAH (Mus musculus, UniProt O08914).
T1 construct: brain FAAH Activity was also evaluated in an escalating oral dose study in mice; from tissue; host or cells: mouse brain
T1 sequence (O08914 1-579): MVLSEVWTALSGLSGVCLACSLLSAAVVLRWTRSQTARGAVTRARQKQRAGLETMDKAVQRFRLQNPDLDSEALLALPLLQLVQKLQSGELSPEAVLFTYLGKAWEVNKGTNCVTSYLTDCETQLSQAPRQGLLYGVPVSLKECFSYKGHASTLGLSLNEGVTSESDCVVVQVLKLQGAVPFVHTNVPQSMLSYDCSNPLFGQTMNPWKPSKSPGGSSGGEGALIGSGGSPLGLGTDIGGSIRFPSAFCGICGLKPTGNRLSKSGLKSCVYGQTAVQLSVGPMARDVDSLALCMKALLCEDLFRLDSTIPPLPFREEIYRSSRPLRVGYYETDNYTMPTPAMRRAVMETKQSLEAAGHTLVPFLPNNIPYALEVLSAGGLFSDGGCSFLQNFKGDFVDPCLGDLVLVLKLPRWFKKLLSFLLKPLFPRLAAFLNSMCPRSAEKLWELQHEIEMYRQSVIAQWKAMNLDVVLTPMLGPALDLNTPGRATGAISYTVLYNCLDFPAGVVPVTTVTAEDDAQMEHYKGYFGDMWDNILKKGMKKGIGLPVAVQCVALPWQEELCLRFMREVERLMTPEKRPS
The experiment in a line: Escalating oral dose study in mice, brain FAAH activity. In kind it is in vivo. Here is the method:
Finally, the correlation between increases in plasma OEA levels and brain FAAH Activity was also evaluated in an escalating oral dose study in mice. Inhibition of FAAH activity was maximal at 50 mg/kg p.o. and partial 10 mg/kg p.o. (FIG. 12). Increases in plasma OEA levels directly correlated with brain FAAH inhibition (FIG. 13).

Assay [2] deals with OEA plasma levels. In words: Plasma/serum OEA and PEA levels by LC-MS/MS after oral administration in rats. The settings on record: rat, 30 mg/kg p.o. vs 10 mg/kg p.o. The class given is in vivo. Here is the method: At 0, 1, 2, 4, 8, 12, and 24 hours post-administration, animals were sacrificed to collect serum and brain tissue samples. For each time point, FAAH activity was determined in brain tissue homogenates by essentially the same method as that described in Fegley et al. (2005), J. Pharm. and Exp. Ther., 313:352-358. We observed complete FAAH inhibition at 10 mg/kg and partial FAAH inhibition at 1 mg/kg (FIG. 1).
Serum OEA and PEA levels were determined by LC-MS/MS. As shown in FIGS. 2 (A-B), plasma levels of both OEA and PEA were highly correlated with FAAH inhibition in the brain (R^2=0.9459 and 0.929, respectively). In addition, changes in OEA plasma levels correlated with changes in anandamide (AEA) levels in the brain (FIG. 3; R^2=0.9363), and changes in AEA brain levels correlated with brain FAAH inhibition (FIG. 4; R^2=0.9996). […] AUCs were determined as the sum of the area under the plasma concentration curve of the analyte measured (minus the endogenous level), or as a % FAAH inhibition versus time curve from time zero to the last time point collected by the trapezoidal rule.

For assay [3], the system named is plasma OEA levels. The experiment in a line: Time course of plasma OEA levels after oral administration to cynomolgus monkeys. The class given is in vivo. As for the experimental part:
Afterwards, a time course of plasma OEA levels was determined for each subject by obtaining a plasma sample at 0.5, 1, 2, 4, 8, 12, and 24 hours post-administration.

Assay [4] relates to OEA and PEA levels in plasma. The experiment in a line: 28-day toxicokinetic (TK) study in rodents, plasma OEA and PEA levels. In kind it is in vivo, rat. As to conditions: rodent TK study, 50, 275 and 1500 mg/kg. From the text: We carried out toxicokinetic (TK) studies in rodents. […] AEA was included in this assay to examine whether basal or elevated levels of AEA could be detected.

For `NC(=O)c1cccc(-c2cccc(OC(=O)NC3CCCCC3)c2)c1` [KDS-4103], in assay [1] (10 mg/kg p.o.), the “Inhibition of FAAH activity in brain” value is “partial”. The “Inhibition of FAAH activity in brain” value in assay [1] (50 mg/kg p.o.) was “maximal”. Moreover, the “plasma levels of OEA at 30 mg/kg compared with 10 mg/kg” value in assay [2] is “did not increase plasma levels of OEA above those observed at 10 mg/kg”. The “inhibition of FAAH activity in primates, concluded from plasma OEA” value in assay [3] (50-1500 mg/kg) was “highly effective”. For the same molecule, the “time of peak plasma OEA levels” value in assay [3] (each dose of 50-1500 mg/kg) is listed as “four”. In assay [3] (each dose of 50-1500 mg/kg, up to 24 hours), the “plasma OEA levels after the peak” value is recorded as “remained elevated at all subsequent time points examined”. In assay [4], the “FAAH inhibition inferred from OEA and PEA increases” value is listed as “complete across all doses”; the “Increases in OEA and PEA levels across the dose range” value was “similar”.
